In publication PMC9780888, “4-Isobutylmethcathinone—A Novel Synthetic Cathinone with High In Vitro Cytotoxicity and Strong Receptor Binding Preference of Enantiomers” (Pharmaceuticals, 2022):
Where a name gives a salt, the structure may show the parent alone.

Tests used:
[1] = target: T1, ADRA2C (alpha-2C adrenergic receptor) (Homo sapiens, UniProt P18825); test: PRESTO-Tango β-arrestin 2 recruitment assay, ADRA2C; type: cell-based; conditions: 500 nM
T1 construct: Tango construct (TEV cleavage site and tTA, as described for the dopamine receptor plasmids); host or cells: HTLA (HEK 293-derived)
Description: (§1) The HTLA cell line was used for the PRESTO-Tango β-arrestin recruitment assay. The HTLA cells were provided as a gift from the laboratory of Bryan Roth (Roth Lab, USA). It is a human cell line derived from human embryonic kidney cells (HEK 293) stably expressing β-arrestin in a fusion with the tobacco etch virus protease (TEV) protease and the luciferase gene under the control of the transcription factor tetracycline transcriptional activator (tTA). The HTLA cells were cultured under standard incubation conditions (37 °C, 5% CO2, 95% humidity) in DMEM with 10% FBS. […]
(§2) The transfected HTLA cells were incubated for 24 h, and then 1 × 10^4 cells were seeded per well of a white 96-well clear bottom plate (Brand, Germany) in 40 μL of DMEM with 1% charcoal-stripped FBS (Thermo Fisher Scientific, USA). […] After 5 min., the luminescence was measured using a multi-mode microplate reader SpectraMax iD5 (Molecular Devices, San Jose, CA, USA) measuring the entire wavelength spectrum. All samples were measured in quadruplicates. The data were evaluated by Prism 7 software (GraphPad, […], CA, USA). […]
(§3) The error bar represents standard deviation from four replicates. The data were processed and evaluated by GraphPad Prism Software using one-way ANOVA: * p<0.05; ** p<0.01; *** […]

[2] = system: CaCo-2 cells; test: Fluorescence microscopy of cell morphology, CaCo-2; type: cell-based, human; conditions: CaCo-2, 24-h treatment, 100, 300 and 500 µM tested; cells smaller, roundish, in clusters
Source text: (§4) In addition to the evaluation of IBMcat cytotoxicity in various cell lines, its impact on cell morphology was also examined in CaCo-2 and MRC-5 cells after 24-h treatment. F-actin and cell nuclei were visualized in these cells treated with 100, 300, and 500-µM concentrations of IBMcat and its enantiomers. IBMcat (Figure 7) induced a considerable change in CaCo-2 cell morphology already from 300-µM concentration, the cells were smaller, bore roundish shapes, and grew in clusters when compared to control untreated cells. This could be ascribed to the substantial toxicity of IBMcat manifested already after 24 h at this concentration. No difference was observed between the individual enantiomers.
(§5) A total of 1 × 10^5 CaCo-2 and MRC-5 cells were seeded into 35-mm glass-bottom dishes for live-cell imaging ((#1.5, MatTek, USA; Ibidi dishes, Germany). After 16 h, the cells were gently washed with phosphate-buffered saline (PBS; pH 7.4), and then, cultivation media containing 100–500 µM IBMCat was added. Untreated cells and cells treated with the vehicle served as controls. After 24 h of the cell incubation with IBMCat, the cells were gently washed with PBS and then fixed with a 4% solution of formaldehyde (methanol-free, Thermo Fisher, USA) in PBS for 20 min. at 22 °C in the dark. Then, the fixative was discarded, and the cells were washed twice with PBS. […]

[3] = system: MRC-5 cells; test: Fluorescence microscopy of cell morphology, MRC-5; type: cell-based, human; conditions: MRC-5, 24-h treatment, 100-500 µM
Source text: as §4, §5

[4] = target: T2, HTR2B (5-hydroxytryptamine receptor 2B) (Homo sapiens, UniProt P41595); test: PRESTO-Tango β-arrestin 2 recruitment assay, HTR2B; type: cell-based; conditions: 0-500 nM
T2 construct: Tango construct (TEV cleavage site and tTA, as described for the dopamine receptor plasmids); host or cells: HTLA (HEK 293-derived)
Description: as §1
The transfected HTLA cells were incubated for 24 h, and then 1 × 10^4 cells were seeded per well of a white 96-well clear bottom plate (Brand, Germany) in 40 μL of DMEM with 1% charcoal-stripped FBS (Thermo Fisher Scientific, USA). […] After 5 min., the luminescence was measured using a multi-mode microplate reader SpectraMax iD5 (Molecular Devices, San Jose, CA, USA) measuring the entire wavelength spectrum. All samples were measured in quadruplicates. The data were evaluated by Prism 7 software (GraphPad, San Jose, CA, USA).
Figure S13: β-arrestin 2 recruitment PRESTO-Tango assay: activation of the serotonin receptors. […] The data were processed and evaluated by GraphPad Prism Software using one-way […]

[5] = target: T3, ADRB2 (beta-2 adrenergic receptor) (Homo sapiens, UniProt P07550); test: PRESTO-Tango β-arrestin 2 recruitment assay, ADRB2; type: cell-based
T3 construct: Tango construct (TEV cleavage site and tTA, as described for the dopamine receptor plasmids); host or cells: HTLA (HEK 293-derived)
Description: as §1, §2, §3

T3 sequence (P07550 whole entry): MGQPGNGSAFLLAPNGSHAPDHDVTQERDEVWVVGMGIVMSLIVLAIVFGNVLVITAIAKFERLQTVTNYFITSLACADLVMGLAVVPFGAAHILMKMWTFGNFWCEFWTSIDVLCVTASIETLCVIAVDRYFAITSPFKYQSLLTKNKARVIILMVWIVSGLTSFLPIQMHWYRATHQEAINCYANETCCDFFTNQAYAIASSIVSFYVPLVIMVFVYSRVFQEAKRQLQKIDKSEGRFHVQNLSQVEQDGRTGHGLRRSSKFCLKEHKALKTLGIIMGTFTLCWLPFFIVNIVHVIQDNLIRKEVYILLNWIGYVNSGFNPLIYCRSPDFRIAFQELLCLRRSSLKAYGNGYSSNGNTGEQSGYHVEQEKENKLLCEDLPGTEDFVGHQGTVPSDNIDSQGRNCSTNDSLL
T1 sequence (P18825 whole entry): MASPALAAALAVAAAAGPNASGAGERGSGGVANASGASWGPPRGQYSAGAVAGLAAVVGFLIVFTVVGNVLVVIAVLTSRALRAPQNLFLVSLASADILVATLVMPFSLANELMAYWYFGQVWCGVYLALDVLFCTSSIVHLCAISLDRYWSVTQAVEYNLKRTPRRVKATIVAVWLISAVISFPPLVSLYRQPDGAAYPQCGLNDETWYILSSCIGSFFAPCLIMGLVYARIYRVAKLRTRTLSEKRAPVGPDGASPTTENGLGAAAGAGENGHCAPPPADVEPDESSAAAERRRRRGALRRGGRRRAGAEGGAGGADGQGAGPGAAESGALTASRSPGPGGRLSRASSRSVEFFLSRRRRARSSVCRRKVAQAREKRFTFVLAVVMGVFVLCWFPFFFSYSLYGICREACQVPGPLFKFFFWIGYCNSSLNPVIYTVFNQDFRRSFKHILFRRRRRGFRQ
T2 sequence (P41595 whole entry): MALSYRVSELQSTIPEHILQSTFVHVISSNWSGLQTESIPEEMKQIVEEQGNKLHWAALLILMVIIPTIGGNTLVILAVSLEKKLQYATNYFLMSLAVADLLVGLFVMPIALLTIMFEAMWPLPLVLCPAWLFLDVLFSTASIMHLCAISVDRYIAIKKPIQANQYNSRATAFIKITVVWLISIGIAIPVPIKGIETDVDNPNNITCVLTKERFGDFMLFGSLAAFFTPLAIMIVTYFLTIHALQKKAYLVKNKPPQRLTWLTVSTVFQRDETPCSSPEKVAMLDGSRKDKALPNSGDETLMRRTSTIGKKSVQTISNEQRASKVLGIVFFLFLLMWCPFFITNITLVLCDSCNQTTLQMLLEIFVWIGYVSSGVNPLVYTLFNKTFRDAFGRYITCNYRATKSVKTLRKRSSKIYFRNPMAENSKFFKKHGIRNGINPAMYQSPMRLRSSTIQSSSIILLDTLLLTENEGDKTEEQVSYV

CNC(C)C(=O)c1ccc(CC(C)C)cc1.Cl (stereo not shown) [IBMcat, 4-isobutylmethcathinone hydrochloride]
increase in RLU compared to untreated control [1]: 3.7 fold | concentration from which a considerable change in cell morphology was induced [2]: ≥ 300 µM | cell number compared with control [3]: considerably lesser cells than in the control | effect on cell shape [3]: did not induce any shape-related effect | agonistic activity for HTR2B [4]: did not exhibit any agonistic activity | increase in the luminescence signal ([5]; ADRB2, 50 and 100 nM): 1.5 fold

CN[C@@H](C)C(=O)c1ccc(CC(C)C)cc1 [S-IBMCat, (S)-4-isobutylmethcathinone hydrochloride]
increase in the luminescence signal ([5]; ADRB2, 1 and 5 nM): 1.5 fold
